Laboratory results: patent US12268666B2, “Spray-dried dispersions, formulations, and polymorphs of (S)-5-amino-3-(4-((5-fluoro-2-methoxybenzamido)methyl)phenyl)-1-(1,1,1-trifluoropropan-2-yl)-1H-pyrazole-4-carboxamide” (Loxo Oncology, Inc., priority 2018, dated 2025)
Like-named read-outs stand apart in the source and are kept apart here.

How the values were obtained:
[1] = Dog pharmacokinetics, crystalline compound in suspension (Example 15 Part A); format: in vivo, beagle dogs; settings: for bioavailability / AUC(0-t) / Cmax: both sexes, beagle, dog, plasma, 30 mg/kg; for bioavailability: oral, AUC0-t oral vs AUC0-inf of 2-mg/kg IV dose, read-out: F (bioavailability); for AUC(0-t) / Cmax: po, suspension in 0.5% HPMC
Experimental: Crystalline compound of Formula I is prepared as a suspension in 0.5% hydroxypropyl methylcellulose (IPMC) at 6 mg/mL for administration of 30 mg/kg; no correction factor is used for dose formulation. Three male and five female beagle dogs are administered a single PO gavage dose of 30 mg/kg compound of Formula I formulated as a suspension in 0.5% HPMC. All animals are administered the suspension of the crystalline compound of Formula I in fed and fasted states, following a 7-day washout period between dosing periods/feeding conditions. For both feeding conditions, access to food is removed at least 12 hours prior to dose administration. In Crossover #1, 6 dogs are fed a mix of canned and dry food approximately 45 minutes prior to dose administration (Group 1), and 2 dogs are administered the compound of Formula I in a fasted state and fed 4 hours after dosing (Group 2). In Crossover #2, the 2 dogs that are administered the compound of Formula I in the fasted state in Crossover #1 are fed a mix of canned and dry food approximately 45 minutes prior to dose administration (Group 3), and 5 of the dogs that are administered the compound of Formula I in the fed state in Crossover #1 are administered the compound of Formula I in a fasted state and fed 4 hours after dosing (Group 4) (Table 26). The same 3 males and 3 females are assigned to Groups 1 and 4 (with the exception of one female, which is assigned to Group 1 but is not included in Group 4), and the same 2 females are assigned to Groups 2 and 3.
Blood samples are collected via the jugular vein following PO doses at 0 (pre-dose), 0.5, 1, 2, 4, 8 24 and 48 hours into EDTAblood collection tubes. Samples are centrifuged at 3500 rpm for 10 minutes at 4-8° C. and the plasma fraction is stored frozen at −70° C. prior to bioanalytical analysis. Concentrations of the compound of Formula I in dog plasma are determined by LC-MS/MS following protein precipitation with acetonitrile. Non-compartmental pharmacokinetic parameters of the compound of Formula I are calculated by conventional methods using individual plasma concentration profiles over time and Microsoft Excel.

[2] = In vivo dog bioavailability and pharmacokinetic study, reference vs SDD; settings: beagle, plasma, po, 30 mg/kg, dogs, suspension in 0.5% HPMC in water, mean ± SD
Experimental: Dogs are fasted overnight prior to dosing (fasted) or fed canned food 45 min prior to dosing (fed). Samples for pharmacokinetic (PK) analysis are collected at 30 min, 1, 2, 4, 8, 24, and 48 hours post-dose. Blood samples are processed to plasma and stored frozen at −70° C. until analysis of the compound of Formula I concentrations. The concentration of the compound of Formula I in the plasma is determined by reverse phase HPLC with mass spectrometry detection. The compound of Formula I area under the curve is calculated by the trapezoidal method over the time course of the study. ANOVA with Dunett correction for multiple comparisons is used to determine statistical significant of differences from the reference formulation. The values of AUC and Cmax are reported as averages±standard deviation for each group of dogs in Table 24.

[3] = beagle dogs, single PO 30 mg/kg
[4] = beagle dogs, fasted, single PO 30 mg/kg
[5] = beagle dogs, fed, single PO 30 mg/kg

| SMILES | AUC0-t fold change (fed/fasted ratio) [1, 3] | Cmax fold change (fed/fasted ratio) [1, 3] | bioavailability ([1]; fasted) [%] | bioavailability ([1]; fed) [%] | AUC(0-t) [1, 4] [ng·h/mL] | Cmax [1, 4] [ng/mL] | AUC(0-t) [1, 5] [ng·h/mL] | Cmax [1, 5] [ng/mL] | AUC ([2]; fasted) [ng·h/mL] | Cmax ([2]; fasted) [ng/mL] | AUC ([2]; fed) [ng·h/mL] | Cmax ([2]; fed) [ng/mL] |
| --- | --- | --- | --- | --- | --- | --- | --- | --- | --- | --- | --- | --- |
| COc1ccc(F)cc1C(=O)NCc1ccc(-c2nn([C@@H](C)C(F)(F)F)c(N)c2C(N)=O)cc1 [Crystalline compound of Formula I, (S)-5-amino-3-(4-((5-fluoro-2-methoxybenzamido)methyl)phenyl)-1-(1,1,1-trifluoropropan-2-yl)-1H-pyrazole-4-carboxamide] | 7.5 ± 3.3 | 4.8 ± 2.1 | 5.09 | 29.7 | 8180 ± 3680 | 597 ± 197 | 47800 ± 21300 | 2370 ± 679 |  |  |  |  |
| COc1ccc(F)cc1C(=O)NCc1ccc(-c2nn([C@@H](C)C(F)(F)F)c(N)c2C(N)=O)cc1 [Reference, (S)-5-amino-3-(4-((5-fluoro-2-methoxybenzamido)methyl)phenyl)-1-(1,1,1-trifluoropropan-2-yl)-1H-pyrazole-4-carboxamide] |  |  |  |  |  |  |  |  | 11300 | 597 | 47800 | 2370 |
